What all share (conditions): salmonella enterica subsp. enterica serovar typhimurium
For data set [1], the system named is Salmonella typhimurium. The data set is described as follows: Toxicity in Salmonella Typhimurium TA98 at 10000 ng/plate after 48 hrs by Ames assay. The format is organism-based. On the technique in general: In the Ames test, an excess of revertant colonies over the control signals mutagenicity.
Data set [2] has as its system Salmonella typhimurium. The data set is described as follows: Toxicity in Salmonella Typhimurium TA100 at 5000 ng/plate after 48 hrs by Ames assay. The format is organism-based.
For data set [3], the system named is Salmonella typhimurium. The data set is described as follows: Mutagenic activity in Salmonella Typhimurium TA100 assessed as number of revertant colonies at 36 ng/plate after 48 hrs by Ames assay. It is filed as toxicity, organism-based.
Data set [4] has as its system Salmonella typhimurium. The data set is described as follows: Mutagenic activity in Salmonella Typhimurium TA100 assessed as number of revertant colonies at 313 ng/plate after 48 hrs by Ames assay. The format is toxicity, organism-based.
The subject of data set [5] is Salmonella typhimurium. Kind of data set: Toxicity in Salmonella Typhimurium TA100 at 10000 ng/plate after 48 hrs by Ames assay. The format is organism-based.
Data set [6] has as its system Salmonella typhimurium. The data set is described as follows: Toxicity in Salmonella Typhimurium TA98 at 5000 ng/plate after 48 hrs by Ames assay. The format is organism-based.
For data set [7], the system named is Salmonella typhimurium. Kind of data set: Mutagenic activity in Salmonella Typhimurium TA100 assessed as number of revertant colonies at 156 ng/plate after 48 hrs by Ames assay. The format is toxicity, organism-based.
Data set [8] has as its system Salmonella typhimurium. Kind of data set: Toxicity in Salmonella Typhimurium TA100 at 2500 ng/plate after 48 hrs by Ames assay. It is filed as organism-based.
The test system of data set [9] is Salmonella typhimurium. The data set is described as follows: Mutagenic activity in Salmonella Typhimurium TA100 assessed as number of revertant colonies at 78 ng/plate after 48 hrs by Ames assay. The format is toxicity, organism-based.
The test system of data set [10] is Salmonella typhimurium. Kind of data set: Mutagenic activity in Salmonella Typhimurium TA100 assessed as number of revertant colonies at 50000 ng/plate after 48 hrs by Ames assay. It is filed as toxicity, organism-based.
Data set [11] concerns Salmonella typhimurium. Kind of data set: Mutagenic activity in Salmonella Typhimurium TA98 assessed as number of revertant colonies at 50000 ng/plate after 48 hrs by Ames assay. It is filed as toxicity, organism-based.
For data set [12], the system named is Salmonella typhimurium. The data set is described as follows: Mutagenic activity in Salmonella Typhimurium TA100 assessed as number of revertant colonies at 25000 ng/plate after 48 hrs by Ames assay. The format is toxicity, organism-based.
For data set [13], the system named is Salmonella typhimurium. Kind of data set: Mutagenic activity in Salmonella Typhimurium TA100 assessed as number of revertant colonies at 100000 ng/plate after 48 hrs by Ames assay. It is filed as toxicity, organism-based.
Data set [14] has as its system Salmonella typhimurium. Kind of data set: Mutagenic activity in aldehyde-sensitive Salmonella Typhimurium TA104 assessed as number of revertant colonies at 50000 ng/plate after 48 hrs by Ames assay. The format is toxicity, organism-based.
For data set [15], the system named is Salmonella typhimurium. Kind of data set: Mutagenic activity in aldehyde-sensitive Salmonella Typhimurium TA104 assessed as number of revertant colonies at 100000 ng/plate after 48 hrs by Ames assay. It is filed as toxicity, organism-based.
Data set [16] relates to Salmonella typhimurium. Kind of data set: Mutagenic activity in Salmonella Typhimurium TA98 assessed as number of revertant colonies at 100000 ng/plate after 48 hrs by Ames assay. The format is toxicity, organism-based.
Data set [17] concerns Salmonella typhimurium. The data set is described as follows: Mutagenic activity in aldehyde-sensitive Salmonella Typhimurium TA104 assessed as number of revertant colonies at 25000 ng/plate after 48 hrs by Ames assay. It is filed as toxicity, organism-based.
Data set [18] has as its system Salmonella typhimurium. Kind of data set: Toxicity in aldehyde-sensitive Salmonella Typhimurium TA104 at 10000 ng/plate after 48 hrs by Ames assay. The format is organism-based.
Data set [19] has as its system Salmonella typhimurium. The data set is described as follows: Toxicity in aldehyde-sensitive Salmonella Typhimurium TA104 at 5000 ng/plate after 48 hrs by Ames assay. The format is organism-based.
For data set [20], the system named is Salmonella typhimurium. The data set is described as follows: Toxicity in aldehyde-sensitive Salmonella Typhimurium TA104 at 2500 ng/plate after 48 hrs by Ames assay. It is filed as organism-based.

On to `CC/C=C/C=C/C=C/C=C/C=C/OC[C@@H](O)CO`, for which the Activity entry in the data set on Salmonella typhimurium [1] is given as “Toxic”; in the data set on Salmonella typhimurium [2] it was “Toxic”; with Salmonella typhimurium [3] it was 187; in the data set on Salmonella typhimurium [4], 612; in the data set with Salmonella typhimurium [5], “Toxic”; in the data set on Salmonella typhimurium [6] it was “Toxic”. The values for the Activity in the data set with Salmonella typhimurium [7], in the data set with Salmonella typhimurium [8] and in the data set with Salmonella typhimurium [9] were 459, “Toxic” and 306, respectively.

Turning to `CC/C=C/C=C/C=C/C=C/C=O`, the Activity is reported as 187 in the data set on Salmonella typhimurium [10]; 24 in the data set on Salmonella typhimurium [11]; 185 with Salmonella typhimurium [12]; 221 in the data set with Salmonella typhimurium [13]; 186 in the data set on Salmonella typhimurium [14]; 181 in the data set on Salmonella typhimurium [15]. Further, the values for the Activity with Salmonella typhimurium [16] and in the data set on Salmonella typhimurium [17] were 23 and 165, respectively.

In the case of `CC/C=C/C=C/C=C/C=C/C=C/OCC(O)CO` (racemic), the Activity result was “Toxic” in the data set on Salmonella typhimurium [1]; “Toxic” in the data set with Salmonella typhimurium [2]; 184 in the data set with Salmonella typhimurium [3]; “Toxic” with Salmonella typhimurium [18]; 799 with Salmonella typhimurium [4]; “Toxic” in the data set with Salmonella typhimurium [5]. The Activity entry in the data set with Salmonella typhimurium [6] is recorded as “Toxic”; with Salmonella typhimurium [7] it was 561; in the data set on Salmonella typhimurium [8], “Toxic”; in the data set on Salmonella typhimurium [19], “Toxic”; in the data set on Salmonella typhimurium [9] it was 204; in the data set on Salmonella typhimurium [20], “Toxic”.

The values are drawn from ChEMBL document CHEMBL1137793, “Synthesis and biological activity of analogs of fecapentaene-12” (J Nat Prod, 1987).
